# Assay results taken from article PMC10397409, “The action of physiological and synthetic steroids on the calcium channel CatSper in human sperm” (Frontiers in Cell and Developmental Biology, 2023).
# Where two headings read alike, the source gives them in different places.
# Columns and labels:
# [1] = target: T1, CatSper (Homo sapiens, UniProt Q7RTX7+Q86XQ3+Q8NEC5+Q96P56); assay: Steroid-induced increase in [Ca2+]i in human sperm (Fluo-4 HTS assay, screen 1 activators); type: cell-based; conditions: for Emax: read-out: Max amplitude (%) (± SD)
# T1 construct: Motile spermatozoa were selected by a ‘swim-up’ procedure; endogenous in cells; host or cells: motile human spermatozoa (swim-up) from healthy donors
# [2] = target: T1, CatSper; assay: Inhibition of P4-induced Ca2+ influx in human sperm (screen 2 inhibitors); type: cell-based; conditions: for Max P4 inhibition (%) (± SD): 3 independent experiments
# [3] = EC50 (±SD), increase in [Ca2+]i, dose-response 90 µM to 0.3 nM
# [4] = Mean EC50 µM (±SD), pooled from 3 independent experiments
# [5] = IC50 (±SD), inhibition of P4-induced Ca2+ response, dose-response 90 µM to 0.3 nM
# [6] = Mean IC50 (P4) µM (±SD), P4-induced response, pooled from 3 independent experiments
# [7] = maximal amplitude of steroid-induced [Ca2+]i increase, relative to P4, 3 independent experiments
SMILES,EC02 compared with reported maximum concentration in blood serum [1],"EC50 [1, 3]","EC50 [1, 4]",Emax [1],Max P4 inhibition (%) (± SD) [2],"IC50 [2, 5]","IC50 [2, 6]",effective concentrations as low as (dose-dependent increase in [Ca2+]i) [1],"Emax [1, 7]","EC50 ([1]; increase in [Ca2+]i in human sperm, read-out: EC50)","EC50 ([1]; increase in [Ca2+]i, dose-response 90 µM to 0.3 nM, read-out: EC50 (±SD))","EC50 ([1]; pooled from 3 independent experiments, read-out: Mean EC50 µM (±SD))","IC50 ([2]; inhibition of P4-induced Ca2+ response, dose-response 90 µM to 0.3 nM, read-out: IC50 (±SD))",increase in [Ca2+]i ([1]; at low concentrations in the nanomolar range)
C[C@]12CC[C@H](O)C[C@@H]1CC[C@@H]1[C@@H]2CC[C@]2(C)C(=O)CC[C@@H]12 [Epiandrosterone],EC02 below the reported maximum concentration found in blood serum,0.209 µM,0.207 µM,78%,72 (±2) %,0.628 µM,0.625 µM,,,,,,,
CC(=O)[C@H]1CC[C@H]2[C@@H]3CC=C4C[C@@H](O)CC[C@]4(C)[C@H]3CC[C@]12C [Pregnenolone],EC02 below the reported maximum concentration found in blood serum,0.073 µM,0.07 µM,,82 (±5) %,0.199 µM,,10 nM,73%,,,,,
CC(=O)[C@H]1CC[C@H]2[C@@H]3CCC4=CC(=O)CC[C@]4(C)[C@H]3CC[C@]12C [Progesterone],,,,,79 (±7) %,,,,100%,0.0025 µM,0.003 µM,0.002 µM,0.006 µM,
C[C@]12Cc3c[nH]nc3C[C@@H]1CC[C@@H]1[C@@H]2CC[C@@]2(C)[C@H]1CC[C@]2(C)O [Stanozolol],,0.285 µM,0.081 µM,79%,96 (±2) %,0.194 µM,0.19 µM,,,,,,,30%
